From patent US9179674B2, “Macrocyclic picolinamide compounds with fungicidal activity” (DOW AGROSCIENCES LLC, priority 2013, dated 2015)
Like-named read-outs stand apart in the source and are kept apart here.

Experiments:
[1] = tested on: Mycosphaerella graminicola; Anamorph: Septoria tritici; test: Leaf Blotch of Wheat fungicidal activity (SEPTTR); type: in vivo; conditions: Zymoseptoria tritici; for pest or weed control at 100 ppm: rate 100 ppm; for pest or weed control at 121.5 g/ha: rate 121.5 g/H
Method: Evaluation of Fungicidal Activity: Leaf Blotch of Wheat (Mycosphaerella graminicola; Anamorph: Septoria tritici; Bayer code […]) Technical grades of materials were dissolved in acetone, which were then mixed with nine volumes of water containing 110 ppm Triton X-100. The fungicide solutions were applied onto wheat seedlings using an automated booth sprayer to run-off. All sprayed plants were allowed to air dry prior to further handling. All fungicides were evaluated using the aforementioned method for their activity vs. all target diseases. Wheat leaf blotch and brown rust activity were also evaluated using track spray applications, in which case the fungicides were formulated as EC formulations, containing 0.1% Trycol 5941 in the spray solutions. Wheat plants (variety Yuma) were grown from seed in a greenhouse in 50% mineral soil/50% soil-less Metro mix until the first leaf was fully emerged, with 7-10 seedlings per pot. These plants were inoculated with an aqueous spore suspension of Septoria tritici either prior to or after fungicide treatments. After inoculation the plants were kept in 100% relative humidity (one day in a dark dew chamber followed by two to three days in a lighted dew chamber at 20° C.) to permit spores to germinate and infect the leaf. The plants were then transferred to a greenhouse set at 20° C. for disease to develop. When disease symptoms were fully expressed on the 1st leaves of untreated plants, infection levels were assessed on a scale of 0 to 100 percent disease severity. Percent disease control was calculated using the ratio of disease severity on treated plants relative to untreated plants.

Puccinia triticina = test: Wheat Brown Rust fungicidal activity (PUCCRT); type: in vivo; conditions: Puccinia triticina; for pest or weed control at 100 ppm: rate 100 ppm; for pest or weed control at 121.5 g/ha: rate 121.5 g/H
Method: Technical grades of materials were dissolved in acetone, which were then mixed with nine volumes of water containing 110 ppm Triton X-100. The fungicide solutions were applied onto wheat seedlings using an automated booth sprayer to run-off. All sprayed plants were allowed to air dry prior to further handling. All fungicides were evaluated using the aforementioned method for their activity vs. all target diseases. Wheat leaf blotch and brown rust activity were also evaluated using track spray applications, in which case the fungicides were formulated as EC formulations, containing 0.1% Trycol 5941 in the spray solutions. Wheat plants (variety Yuma) were grown from seed in a greenhouse in 50% mineral soil/50% soil-less Metro mix until the first leaf was fully emerged, with 7-10 seedlings per pot. These plants were inoculated with an aqueous spore suspension of Septoria tritici either prior to or after fungicide treatments. After inoculation the plants were kept in 100% relative humidity (one day in a dark dew chamber followed by two to three days in a lighted dew chamber at 20° C.) to permit spores to germinate and infect the leaf. The plants were then transferred to a greenhouse set at 20° C. for disease to develop. When disease symptoms were fully expressed on the 1st leaves of untreated plants, infection levels were assessed on a scale of 0 to 100 percent disease severity. Percent disease control was calculated using the ratio of disease severity on treated plants relative to untreated plants. Evaluation of Fungicidal Activity: Wheat Brown Rust (Puccinia triticina; Synonym: Puccinia recondite f sp. tritici; Bayer code PUCCRT) Wheat plants (variety Yuma) were grown from seed in a greenhouse in 50% mineral soil/50% soil-less Metro mix until the first leaf was fully emerged, with 7-10 seedlings per pot. These plants were inoculated with an aqueous spore suspension of Puccinia triticina either prior to or after fungicide treatments. After inoculation the plants were kept in a dark dew room at 22° C. with 100% relative humidity overnight to permit spores to germinate and infect the leaf. The plants were then transferred to a greenhouse set at 24° C. for disease to develop. Fungicide formulation, application and disease assessment followed the procedures as described in the Example A.

[2] = 24 h, 1 Day Protectant, read-out: Disease control SEPTTR 1DP
[3] = 72 h, 3 Day Curative, read-out: Disease control SEPTTR 3DC
[4] = 24 h, 1 Day Protectant, read-out: Disease control PUCCRT 1DP
[5] = 72 h, 3 Day Curative, read-out: Disease control PUCCRT 3DC

| Compound | pest or weed control at 100 ppm [1, 2] | pest or weed control at 121.5 g/ha [1, 2] | pest or weed control at 100 ppm [1, 3] | pest or weed control at 121.5 g/ha [1, 3] | pest or weed control at 100 ppm (Puccinia triticina; [4]) | pest or weed control at 121.5 g/ha (Puccinia triticina; [4]) | pest or weed control at 100 ppm (Puccinia triticina; [5]) | pest or weed control at 121.5 g/ha (Puccinia triticina; [5]) |
| --- | --- | --- | --- | --- | --- | --- | --- | --- |
| CCCCCO[C@@H]1[C@@H](CC2CCCC2)COC[C@H](NC(=O)c2nccc(OC)c2OCOC(C)=O)C(=O)O[C@H]1C [Compound F116] | 80 to 100% | 80 to 100% | 80 to 100% | 80 to 100% | 80 to 100% | 80 to 100% | 80 to 100% | 80 to 100% |
| COc1ccnc(C(=O)N[C@H]2COC[C@H](Cc3ccc(C(F)(F)F)cc3)[C@@H](OC(=O)C3CC3)[C@H](C)OC2=O)c1O [Compound F26] | 80 to 100% |  | 0 to 80% |  | 0 to 80% |  |  |  |
| COc1ccnc(C(=O)N[C@H]2COC[C@H](CCC(C)C)[C@@H](Oc3ccc(C)cc3)[C@H](C)OC2=O)c1O [Compound F37] | 80 to 100% |  | 80 to 100% |  | 80 to 100% |  | 0 to 80% |  |
| COc1ccnc(C(=O)N[C@H]2COC[C@H](CCC(C)C)[C@@H](OCC(C)C)[C@H](C)OC2=O)c1OC(C)=O [Compound F68] | 80 to 100% | 80 to 100% | 80 to 100% | 80 to 100% | 80 to 100% | 80 to 100% | 80 to 100% | 80 to 100% |
| CCCO[C@@H]1[C@@H](Cc2ccc(C(F)(F)F)cc2)COC[C@H](NC(=O)c2nccc(OC)c2OCOC(=O)COCC)C(=O)O[C@H]1C [Compound F120, ((4-methoxy-2-(((3S,7S,8R,9S)-9-methyl-2-oxo-8-propoxy-7-(4-(trifluoromethyl)benzyl)-1,5-dioxonan-3-yl)carbamoyl)pyridin-3-yl)oxy)methyl 2-ethoxyacetate] | 80 to 100% |  | 80 to 100% |  | 80 to 100% |  | 0 to 80% |  |
| COc1ccnc(C(=O)N[C@H]2COC[C@H](CCc3ccccc3)[C@@H](OC(=O)C3CC3)[C@H](C)OC2=O)c1OC(C)=O [Compound F57] | 80 to 100% | 80 to 100% | 80 to 100% | 80 to 100% | 80 to 100% | 80 to 100% | 80 to 100% | 0 to 80% |
| COc1ccnc(C(=O)N[C@H]2COC[C@H](CC(F)(F)F)[C@@H](OCC(C)C)[C@H](C)OC2=O)c1OCOC(C)=O [Compound F104] | 80 to 100% | 80 to 100% | 80 to 100% | 80 to 100% | 80 to 100% | 80 to 100% | 80 to 100% | 80 to 100% |
| CCCO[C@@H]1[C@@H](CCC(C)C)COC[C@H](NC(=O)c2nccc(OC)c2O)C(=O)O[C@H]1C [Compound F38] | 80 to 100% |  | 80 to 100% |  | 80 to 100% |  | 80 to 100% |  |
| COc1ccnc(C(=O)N[C@H]2COC[C@H](Cc3ccc(C)cc3)[C@@H](OCCCC(F)(F)F)[C@H](C)OC2=O)c1O [Compound F23] | 80 to 100% |  | 0 to 80% |  | 80 to 100% |  | 0 to 80% |  |
| COc1ccnc(C(=O)N[C@H]2COC[C@H](Cc3ccc(C)cc3)[C@@H](OC3CCCC3)[C@H](C)OC2=O)c1O [Compound F25] | 80 to 100% |  | 80 to 100% |  | 80 to 100% |  | 0 to 80% |  |
| COc1ccnc(C(=O)N[C@H]2COC[C@H](Cc3ccc(C(F)(F)F)cc3)[C@@H](OC(=O)C(C)C)[C@H](C)OC2=O)c1OC(C)=O [Compound F67] | 80 to 100% |  | 0 to 80% |  | 80 to 100% |  | 80 to 100% |  |
| COc1ccnc(C(=O)N[C@H]2COC[C@H](CCC(C)C)[C@@H](OCC(C)C)[C@H](C)OC2=O)c1O [Compound F34] | 80 to 100% |  | 80 to 100% |  | 80 to 100% |  | 80 to 100% |  |
| CCOCC(=O)OCOc1c(OC)ccnc1C(=O)N[C@H]1COC[C@H](CC2CCCC2)[C@@H](OC(=O)C(C)C)[C@H](C)OC1=O [Compound F121] | 80 to 100% | 80 to 100% | 80 to 100% | 80 to 100% | 80 to 100% | 80 to 100% | 80 to 100% | 80 to 100% |
| COc1ccnc(C(=O)N[C@H]2COC[C@H](Cc3ccc(C)cc3)[C@@H](OCCCC(F)(F)F)[C@H](C)OC2=O)c1OC(C)=O [Compound F62] | 80 to 100% | 80 to 100% | 80 to 100% | 80 to 100% | 80 to 100% | 80 to 100% | 80 to 100% | 0 to 80% |
| COc1ccnc(C(=O)N[C@H]2COC[C@H](Cc3ccc(C(F)(F)F)cc3)[C@@H](OCC(C)C)[C@H](C)OC2=O)c1OCOC(C)=O [Compound F99] | 80 to 100% | 80 to 100% | 80 to 100% | 80 to 100% | 80 to 100% | 80 to 100% | 80 to 100% | 0 to 80% |
| COc1ccnc(C(=O)N[C@H]2COC[C@H](Cc3ccc(F)cc3)[C@@H](OCC(C)C)[C@H](C)OC2=O)c1O [Compound F21] | 80 to 100% |  | 80 to 100% |  | 80 to 100% |  | 80 to 100% |  |
| CCCCCO[C@@H]1[C@@H](Cc2ccc(C(F)(F)F)cc2)COC[C@H](NC(=O)c2nccc(OC)c2OCOC(C)=O)C(=O)O[C@H]1C [Compound F103] | 80 to 100% |  | 0 to 80% |  | 80 to 100% |  | 80 to 100% |  |
| COc1ccnc(C(=O)N[C@H]2COC[C@H](Cc3ccc(F)cc3)[C@@H](Oc3ccccc3)[C@H](C)OC2=O)c1OC(C)=O [Compound F59] | 80 to 100% | 80 to 100% | 80 to 100% | 80 to 100% | 80 to 100% | 80 to 100% | 80 to 100% | 0 to 80% |
| COc1ccnc(C(=O)N[C@H]2COC[C@H](CC(F)(F)F)[C@@H](OC3CCCC3)[C@H](C)OC2=O)c1O [Compound F33] | 80 to 100% |  | 0 to 80% |  | 0 to 80% |  |  |  |
| COc1ccnc(C(=O)N[C@H]2COC[C@H](CC3CCCC3)[C@@H](OCC(C)C)[C@H](C)OC2=O)c1OCOC(C)=O [Compound F115] | 80 to 100% | 80 to 100% | 80 to 100% | 80 to 100% | 80 to 100% | 80 to 100% | 80 to 100% | 80 to 100% |
